According to patent publication US12303509B2, “Compounds for the treatment of BRAF-associated diseases and disorders” (Pfizer Inc., priority 2020, dated 2025):
Where a name gives a salt, the structure may show the parent alone.

Legend:
[1] = MDR1 LLC-PK1 and BCRP MDCKII permeability assay: permeability coefficient (Papp); format: in vitro ADME
Source text: (§1) Final organic concentration in the assay was 1%.

[2] = tested on: A375 cells; test: Cellular phospho-ERK inhibition assay in A375 cells; format: cell-based; settings: Homo sapiens, A-375, A375 cells (head prints A357), 2 hours treatment, read-out: A357 cell IC50
In short: (§2)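 A375 (DMEM) or H1755 (RPMI) cells in 10% FBS treated 2 h at 37 °C with 9-point series, 66 pM–10 μM, 0.25% DMSO. Phospho-ERK1/2 (Thr202/Tyr204) measured by In Cell Western, normalised to GAPDH and to DMSO and 10 μM binimetinib controls; IC50 by 4-parameter fit.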

[3] = biological target: full-length FLAG-tagged B-Raf(V600E) (Homo sapiens (Human), UniProt P15056, V600E); test: BRAF V600E enzyme assay (TR-FRET competitive displacement); format: binding; settings: averaged IC50; TR-FRET tracer displacement, 60 min
In short: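 Displacement of 50 nM Tracer 1710 from 5 nM full-length N-terminally FLAG-tagged B-Raf(V600E), detected by TR-FRET with 0.5 nM Eu anti-FLAG antibody, in 25 mM HEPES pH 7.4, 10 mM MgCl2, 2% DMSO; 60 min at ~22 °C. Compounds 11-point, 3-fold from 10 μM; IC50 from 4-parameter fit at 50 POC.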

[4] = tested on: H1755 cells; test: Cellular phospho-ERK inhibition assay in H1755 cells; format: cell-based; settings: Homo sapiens, NCI-H1755, 2 hours treatment, read-out: H1755 Cell IC50
In short: as §2

[5] = biological target: BCRP (Homo sapiens (Human), UniProt Q9UNQ0); test: BCRP MDCKII permeability assay: efflux ratio; format: in vitro ADME; settings: dog
[6] = biological target: P-gp (MDR1) (Homo sapiens (Human), UniProt P08183); test: MDR1 LLC-PK1 permeability assay: efflux ratio; format: in vitro ADME; settings: pig
Source text: as §1

[7] = PK (free brain-to-free plasma ratio) (mouse); format: in vivo; settings: male CD-1 mice, oral gavage 10 mg/kg, unbound brain-to-unbound plasma, read-out: B/P ratio (free)
Protocol: The ability of representative compounds to penetrate the BBB in mice was determined by evaluating the unbound brain-to-unbound plasma (also referred to as free brain-to-free plasma) concentration ratio in male CD-1 mice.
Brain compound levels were generated from oral mouse PK dosing with typical sampling times of 2, 4, 8, 12 and 24 hours post oral gavage dosing at 10 mg/kg. Brain samples were stored at −20±5° C. prior to analysis. Concentrations of test compound in mouse brain homogenate were determined by liquid chromatography tandem mass spectrometry (LC-MS/MS) following protein precipitation with acetonitrile. A 12-point calibration curve, ranging from 0.5 to 10,000 ng/mL, was prepared in duplicate. A solution of 400 μg/mL of test compound in dimethyl sulfoxide (DMSO) was serially diluted (3-fold) in 100% DMSO, and then 2.5 μL of each standard solution was added to 100 μL of naïve male CD-1 mice brain homogenate. To mimic the extraction in the standard curve, 2.5 μL of DMSO was added to all test samples. Both calibration and test brain homogenate samples were spiked with 10 μL of an IS (1 μg/mL of a structural analog). Brain homogenate was generated by adding 0.75 mL of 4:1 water:MeOH to each brain sample followed by homogenization for 1 minute with bead beater tubes a 6 m/s using an MP Fast Prep-24®. Proteins were precipitated from 100 μL of brain homogenate sample by the addition of 300 μL of acetonitrile. Samples were vortex-mixed for 5 minutes and spun in an Allegra X-12R centrifuge (Beckman Coulter, Fullerton, CA; SX4750A rotor) for 15 min at approximately 1,500×g at 4° C. A 100 μL aliquot of each supernatant was transferred via a 550 μL Personal Pipettor (Apricot Designs, Monrovia, CA) to 96-well plates and diluted 1:1 with HPLC grade water. The resulting plates were sealed with aluminum for LC-MS/MS analysis.
Brain-to-plasma ratios were calculated using the concentration of compound measured in the brain divided by the concentration of compound measured in the plasma. Brain-to-plasma ratios were always generated from a single animal and time point. Free brain-to-free plasma ratios were calculated by multiplying the brain-to-plasma ratio by the in vitro brain homogenate free fraction divided by the in vitro plasma free fraction using the following equation: (B/P)*(Bfu/Pfu). Table C provides the free brain-to-free plasma ratios of compounds disclosed herein.

P-gp (MDR1), sequence (P08183 whole entry, species assumed): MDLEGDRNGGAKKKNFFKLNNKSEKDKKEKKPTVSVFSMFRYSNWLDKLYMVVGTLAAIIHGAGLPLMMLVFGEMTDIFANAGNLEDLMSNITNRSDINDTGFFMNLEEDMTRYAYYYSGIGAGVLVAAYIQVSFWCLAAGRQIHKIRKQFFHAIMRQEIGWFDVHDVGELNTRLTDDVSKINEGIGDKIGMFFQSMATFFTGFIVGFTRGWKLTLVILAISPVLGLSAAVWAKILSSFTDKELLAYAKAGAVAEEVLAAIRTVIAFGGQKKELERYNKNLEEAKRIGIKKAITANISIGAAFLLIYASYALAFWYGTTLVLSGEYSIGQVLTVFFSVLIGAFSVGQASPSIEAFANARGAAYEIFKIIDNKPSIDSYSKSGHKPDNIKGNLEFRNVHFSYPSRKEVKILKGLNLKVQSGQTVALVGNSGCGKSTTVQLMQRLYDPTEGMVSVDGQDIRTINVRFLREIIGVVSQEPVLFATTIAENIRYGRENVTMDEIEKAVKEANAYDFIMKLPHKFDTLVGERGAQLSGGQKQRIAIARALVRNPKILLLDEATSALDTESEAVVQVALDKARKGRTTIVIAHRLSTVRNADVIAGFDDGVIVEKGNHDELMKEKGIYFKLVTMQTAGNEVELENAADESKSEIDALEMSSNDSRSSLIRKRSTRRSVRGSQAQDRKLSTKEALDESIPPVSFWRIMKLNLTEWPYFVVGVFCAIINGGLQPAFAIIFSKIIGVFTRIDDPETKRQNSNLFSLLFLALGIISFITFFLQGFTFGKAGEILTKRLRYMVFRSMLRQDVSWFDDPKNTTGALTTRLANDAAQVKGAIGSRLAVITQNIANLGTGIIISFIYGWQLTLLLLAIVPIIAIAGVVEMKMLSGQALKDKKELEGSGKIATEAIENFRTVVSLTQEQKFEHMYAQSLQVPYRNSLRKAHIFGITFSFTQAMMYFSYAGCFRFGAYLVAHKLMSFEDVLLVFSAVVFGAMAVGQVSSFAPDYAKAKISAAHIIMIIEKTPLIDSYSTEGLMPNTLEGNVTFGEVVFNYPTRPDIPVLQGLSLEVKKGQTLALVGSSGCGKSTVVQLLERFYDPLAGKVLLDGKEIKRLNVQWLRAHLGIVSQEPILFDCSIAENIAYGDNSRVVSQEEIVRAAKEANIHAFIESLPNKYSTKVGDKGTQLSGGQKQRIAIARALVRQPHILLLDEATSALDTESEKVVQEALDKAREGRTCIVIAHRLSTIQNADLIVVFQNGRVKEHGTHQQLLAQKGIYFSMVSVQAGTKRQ
BCRP, sequence (Q9UNQ0 whole entry): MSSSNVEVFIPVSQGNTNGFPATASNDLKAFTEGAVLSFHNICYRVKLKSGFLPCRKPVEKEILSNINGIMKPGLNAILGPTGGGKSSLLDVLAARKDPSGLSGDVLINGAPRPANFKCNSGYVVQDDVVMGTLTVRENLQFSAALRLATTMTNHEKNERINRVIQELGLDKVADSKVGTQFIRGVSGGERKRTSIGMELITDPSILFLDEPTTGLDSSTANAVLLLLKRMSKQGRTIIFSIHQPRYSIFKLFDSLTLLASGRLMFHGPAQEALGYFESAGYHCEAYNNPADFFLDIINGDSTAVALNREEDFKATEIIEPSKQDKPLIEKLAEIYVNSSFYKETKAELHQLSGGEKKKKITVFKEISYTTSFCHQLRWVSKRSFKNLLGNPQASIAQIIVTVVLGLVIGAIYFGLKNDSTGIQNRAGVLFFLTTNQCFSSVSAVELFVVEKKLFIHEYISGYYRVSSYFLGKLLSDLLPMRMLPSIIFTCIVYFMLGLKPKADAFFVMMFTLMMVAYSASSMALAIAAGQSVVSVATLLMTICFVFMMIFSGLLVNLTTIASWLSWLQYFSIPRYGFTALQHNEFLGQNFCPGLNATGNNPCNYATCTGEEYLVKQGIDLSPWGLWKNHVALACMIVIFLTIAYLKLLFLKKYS
full-length FLAG-tagged B-Raf(V600E), sequence (P15056 whole entry V600E): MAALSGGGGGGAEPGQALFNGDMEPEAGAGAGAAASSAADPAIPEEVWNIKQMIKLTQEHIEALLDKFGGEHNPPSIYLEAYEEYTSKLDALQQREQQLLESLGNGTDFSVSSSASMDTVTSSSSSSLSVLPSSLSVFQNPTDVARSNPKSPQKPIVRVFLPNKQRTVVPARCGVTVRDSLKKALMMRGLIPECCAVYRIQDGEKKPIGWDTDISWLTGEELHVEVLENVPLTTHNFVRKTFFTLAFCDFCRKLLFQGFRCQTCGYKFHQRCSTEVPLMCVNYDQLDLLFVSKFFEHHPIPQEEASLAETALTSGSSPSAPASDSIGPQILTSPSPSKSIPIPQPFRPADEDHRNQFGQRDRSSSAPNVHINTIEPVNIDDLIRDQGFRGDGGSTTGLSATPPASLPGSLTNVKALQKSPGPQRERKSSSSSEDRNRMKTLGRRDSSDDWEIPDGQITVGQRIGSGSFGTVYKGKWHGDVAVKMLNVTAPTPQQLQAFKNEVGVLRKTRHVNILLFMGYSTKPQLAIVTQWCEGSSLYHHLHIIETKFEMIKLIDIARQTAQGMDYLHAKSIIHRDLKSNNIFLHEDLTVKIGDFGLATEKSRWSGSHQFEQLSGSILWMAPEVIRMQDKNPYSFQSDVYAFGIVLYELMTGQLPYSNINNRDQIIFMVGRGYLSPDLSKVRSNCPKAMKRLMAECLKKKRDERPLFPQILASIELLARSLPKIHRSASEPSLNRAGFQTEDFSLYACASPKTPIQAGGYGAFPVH

Papp at 2 h, 1 µM [1] | IC50 [2] | IC50 [3] | IC50 [4] | efflux ratio at 2 h, 1 µM [5] | efflux ratio at 2 h, 1 µM [6] | Kp [7] | Structure (SMILES)
27 ×10⁻⁶ cm/s | 6 nM | 13 nM | 66 nM | 1.3 | 1.9 | 0.87 to 1.76 | CO[C@@H]1CCN(S(=O)(=O)Nc2ccc(F)c(Nc3ccc4ncn(C)c(=O)c4c3Cl)c2Cl)C1 [Example 6, (R)-N-(2-chloro-4-fluoro-3-((5-chloro-3-methyl-4-oxo-3,4-dihydroquinazolin-6-yl)amino)phenyl)-3-methoxypyrrolidine-1-sulfonamide]
29 ×10⁻⁶ cm/s | 5 nM | 12 nM | 31 nM | 2.2 | 1.7 | 0.37 to 0.61 | Cn1cnc2ccc(Nc3c(F)ccc(NS(=O)(=O)N4CCCC4)c3Cl)c(F)c2c1=O [Example 7, N-(2-chloro-4-fluoro-3-((5-fluoro-3-methyl-4-oxo-3,4-dihydroquinazolin-6-yl)amino)phenyl)pyrrolidine-1-sulfonamide trifluoroacetate]
29 ×10⁻⁶ cm/s | 14 nM | 7 nM | 85 nM | 1.1 | 1.1 | 0.36 to 0.4 | Cn1cnc2ccc(Nc3c(F)ccc(NS(=O)(=O)N4CC5CC4C5)c3Cl)c(Cl)c2c1=O [Example 9, N-(2-chloro-3-((5-chloro-3-methyl-4-oxo-3,4-dihydroquinazolin-6-yl)amino)-4-fluorophenyl)-2-azabicyclo[2.1.1]hexane-2-sulfonamide trifluoroacetate]
28 ×10⁻⁶ cm/s | 8 nM | 7 nM | 97 nM | 0.9 | 1.1 | 0.34 to 0.39 | Cn1cnc2ccc(Nc3c(F)ccc(NS(=O)(=O)N4CCCC4)c3Cl)c(Cl)c2c1=O [Example 12, N-(2-chloro-3-((5-chloro-3-methyl-4-oxo-3,4-dihydroquinazolin-6-yl)amino)-4-fluorophenyl)pyrrolidine-1-sulfonamide trifluoroacetate]
24 ×10⁻⁶ cm/s | 7 nM | 4 nM | 80 nM | 1.1 | 1.3 | 0.61 to 0.64 | Cn1cnc2ccc(Nc3c(F)ccc(NS(=O)(=O)N4CC5CC5C4)c3Cl)c(Cl)c2c1=O (stereo not shown) [Example 17, N-(2-chloro-3-((5-chloro-3-methyl-4-oxo-3,4-dihydroquinazolin-6-yl)amino)-4-fluorophenyl)-3-azabicyclo[3.1.0]hexane-3-sulfonamide]
30 ×10⁻⁶ cm/s | 5 nM | 4 nM | 39 nM | 1.3 | 2.1 | 0.61 to 0.83 | Cn1cnc2ccc(Nc3c(F)ccc(NS(=O)(=O)N4CC[C@@H](F)C4)c3Cl)c(Cl)c2c1=O [Example 19, (R)-N-(2-chloro-3-((5-chloro-3-methyl-4-oxo-3,4-dihydroquinazolin-6-yl)amino)-4-fluorophenyl)-3-fluoropyrrolidine-1-sulfonamide]
37 ×10⁻⁶ cm/s | 2 nM | 3 nM | 29 nM | 1.8 | 2.2 | 0.4 to 0.58 | Cn1cnc2ccc(Oc3c(F)ccc(NS(=O)(=O)N4CC[C@@H](F)C4)c3Cl)c(F)c2c1=O [Example 20, (R)-N-(2-chloro-4-fluoro-3-((5-fluoro-3-methyl-4-oxo-3,4-dihydroquinazolin-6-yl)oxy)phenyl)-3-fluoropyrrolidine-1-sulfonamide]
28 ×10⁻⁶ cm/s | 9 nM | 3 nM | 35 nM | 2.9 | 1.7 | 0.41 to 0.55 | Cn1cnc2ccc(Nc3c(F)ccc(NS(=O)(=O)N4CC[C@@H](OC(F)F)C4)c3Cl)c(Cl)c2c1=O [Example 29, (R)-N-(2-chloro-3-((5-chloro-3-methyl-4-oxo-3,4-dihydroquinazolin-6-yl)amino)-4-fluorophenyl)-3-(difluoromethoxy)pyrrolidine-1-sulfonamide]
40 ×10⁻⁶ cm/s | 4 nM | 2 nM | 42 nM | 1.2 | 1.5 | 0.51 to 0.64 | Cn1cnc2ccc(Nc3c(F)ccc(NS(=O)(=O)N4CC5CC5C4)c3Cl)c(F)c2c1=O (stereo not shown) [Example 30, N-(2-chloro-4-fluoro-3-((5-fluoro-3-methyl-4-oxo-3,4-dihydroquinazolin-6-yl)amino)phenyl)-3-azabicyclo[3.1.0]hexane-3-sulfonamide trifluoroacetate]
29 ×10⁻⁶ cm/s | 4 nM | 4 nM | 33 nM | 1.5 | 2.4 | 0.66 to 0.73 | CO[C@@H]1CCN(S(=O)(=O)Nc2ccc(F)c(Oc3ccc4ncn(C)c(=O)c4c3Cl)c2Cl)C1 [Example 37, (R)-N-(2-chloro-3-((5-chloro-3-methyl-4-oxo-3,4-dihydroquinazolin-6-yl)oxy)-4-fluorophenyl)-3-methoxypyrrolidine-1-sulfonamide]
33 ×10⁻⁶ cm/s | 5 nM | 2 nM | 27 nM | 1.8 | 1.2 | 0.2 to 0.24 | Cn1cnc2ccc(Oc3c(F)ccc(NS(=O)(=O)N4CC[C@@H](F)C4)c3Cl)c(Cl)c2c1=O [Example 38, (R)-N-(2-chloro-3-((5-chloro-3-methyl-4-oxo-3,4-dihydroquinazolin-6-yl)oxy)-4-fluorophenyl)-3-fluoropyrrolidine-1-sulfonamide]
29 ×10⁻⁶ cm/s | 4 nM | 2 nM | 50 nM | 2.3 | 2 | 0.55 to 0.72 | Cn1cnc2ccc(Nc3c(F)c(F)cc(NS(=O)(=O)N4CCCC4)c3Cl)c(F)c2c1=O [Example 40, N-(2-chloro-4,5-difluoro-3-((5-fluoro-3-methyl-4-oxo-3,4-dihydroquinazolin-6-yl)amino)phenyl)pyrrolidine-1-sulfonamide trifluoroacetate]
29 ×10⁻⁶ cm/s | 5 nM | 3 nM | 42 nM | 2.5 | 1.9 | 0.35 to 0.45 | Cn1cnc2ccc(Nc3c(F)c(F)cc(NS(=O)(=O)N4CC5CC4C5)c3Cl)c(F)c2c1=O [Example 41, N-(2-chloro-4,5-difluoro-3-((5-fluoro-3-methyl-4-oxo-3,4-dihydroquinazolin-6-yl)amino)phenyl)-2-azabicyclo[2.1.1]hexane-2-sulfonamide trifluoroacetate]
26 ×10⁻⁶ cm/s | 404 nM | 28 nM | 879 nM | 1.3 | 1.4 | – | Cc1c(Nc2cc(F)cc(NS(=O)(=O)N3CCCC3)c2F)ccc2ncn(C)c(=O)c12 [Example 154, N-(3-((3,5-dimethyl-4-oxo-3,4-dihydroquinazolin-6-yl)amino)-2,5-difluorophenyl)pyrrolidine-1-sulfonamide]
